Biological target: T1, HDAC6 enzyme (Homo sapiens, UniProt Q9UBN7)
T1 construct: HDAC6 enzyme prepared by transducing full length HDAC6 gene into Sf-9 insect cells; GST; purchased SignalChem; host or cells: Sf-9 insect cells
T1 sequence (Q9UBN7 1-1215): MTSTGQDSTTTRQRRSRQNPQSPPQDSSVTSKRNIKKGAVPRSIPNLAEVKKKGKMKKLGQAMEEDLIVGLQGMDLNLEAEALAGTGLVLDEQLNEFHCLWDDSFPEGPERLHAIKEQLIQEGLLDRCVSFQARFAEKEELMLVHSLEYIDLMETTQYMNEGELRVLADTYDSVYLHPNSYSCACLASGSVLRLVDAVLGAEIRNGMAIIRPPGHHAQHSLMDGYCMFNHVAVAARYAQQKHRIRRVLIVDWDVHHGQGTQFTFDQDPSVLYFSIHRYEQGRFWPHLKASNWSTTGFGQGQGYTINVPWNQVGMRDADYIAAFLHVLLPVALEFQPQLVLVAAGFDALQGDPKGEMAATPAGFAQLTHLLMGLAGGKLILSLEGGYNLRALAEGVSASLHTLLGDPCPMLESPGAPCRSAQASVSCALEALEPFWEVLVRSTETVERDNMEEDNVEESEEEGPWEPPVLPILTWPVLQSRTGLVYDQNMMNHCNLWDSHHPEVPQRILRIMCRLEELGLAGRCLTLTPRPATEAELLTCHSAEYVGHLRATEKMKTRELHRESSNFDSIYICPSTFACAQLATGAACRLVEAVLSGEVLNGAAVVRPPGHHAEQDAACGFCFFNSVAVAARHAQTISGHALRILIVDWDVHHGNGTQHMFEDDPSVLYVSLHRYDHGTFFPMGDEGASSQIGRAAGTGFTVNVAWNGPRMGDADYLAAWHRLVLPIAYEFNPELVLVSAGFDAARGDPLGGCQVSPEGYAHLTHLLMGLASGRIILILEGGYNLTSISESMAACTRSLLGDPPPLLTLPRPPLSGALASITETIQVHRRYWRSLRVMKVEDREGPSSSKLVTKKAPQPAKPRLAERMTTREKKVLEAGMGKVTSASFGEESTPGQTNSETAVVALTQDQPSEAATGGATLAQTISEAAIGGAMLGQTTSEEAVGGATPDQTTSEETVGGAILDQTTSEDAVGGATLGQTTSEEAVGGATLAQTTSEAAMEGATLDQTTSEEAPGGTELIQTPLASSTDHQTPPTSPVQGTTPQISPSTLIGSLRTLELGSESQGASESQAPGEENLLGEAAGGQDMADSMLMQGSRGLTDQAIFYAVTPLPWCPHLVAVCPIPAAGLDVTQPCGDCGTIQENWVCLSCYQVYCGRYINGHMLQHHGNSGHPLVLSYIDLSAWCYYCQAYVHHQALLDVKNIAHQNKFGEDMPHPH
Assay: HDAC6 enzyme inhibitory assay (HDAC-Glo I/II Assay kit)
Type: biochemical
Conditions: wells without enzyme = 100% inhibition; for inhibition at 10 µM: read-out: HDAC6 inhibitory rate (%) (10 μM)
Outline: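 Full-length GST-purified HDAC6 from Sf-9 cells preincubated with compound 60 min at room temperature in Tris-HCl pH 7.5 buffer with MgCl2, KCl, NaCl, glutathione, Tween-20. Substrate-developer reaction 20 min, luminescence read; no-enzyme wells set as 100% inhibition.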

| SMILES | inhibition at 10 µM [%] | also measured |
| --- | --- | --- |
| O=C1c2cc(-c3nnc(C(F)F)o3)ccc2CN1[C@H](c1cnccn1)[C@@H](O)c1ccc(F)cc1 (single isomer, unassigned) [Example 98, 6-[5-(difluoromethyl)-1,3,4-oxadiazol-2-yl]-2-[(1R*,2S*)-2-(4-fluorophenyl)-2-hydroxy-1-(pyrazin-2-yl)ethyl]-2,3-dihydro-1H-isoindol-1-one] | 100 |  |
| O=C1c2cc(-c3nnc(C(F)F)o3)ccc2CN1[C@H](c1cnccn1)[C@@H](O)c1ccc(F)cc1 (single isomer, unassigned) [Example 99, 6-[5-(difluoromethyl)-1,3,4-oxadiazol-2-yl]-2-[(1R*,2S*)-2-(4-fluorophenyl)-2-hydroxy-1-(pyrazin-2-yl)ethyl]-2,3-dihydro-1H-isoindol-1-one] |  | HDAC6 inhibitory rate (%) (10 μM): 100% |
| O=C1c2cc(-c3nnc(C(F)F)o3)ccc2CN1[C@H](c1cnccn1)[C@@H](O)c1cccc(F)c1 (single isomer, unassigned) [Example 100, 6-[5-(difluoromethyl)-1,3,4-oxadiazol-2-yl]-2-[(1R*,2S*)-2-(3-fluorophenyl)-2-hydroxy-1-(pyrazin-2-yl)ethyl]-2,3-dihydro-1H-isoindol-1-one] | 100 |  |
| O=C1c2cc(-c3nnc(C(F)F)o3)ccc2CN1[C@H](c1cnccn1)[C@@H](O)c1cccc(F)c1 (single isomer, unassigned) [Example 101, 6-[5-(difluoromethyl)-1,3,4-oxadiazol-2-yl]-2-[(1R*,2S*)-2-(3-fluorophenyl)-2-hydroxy-1-(pyrazin-2-yl)ethyl]-2,3-dihydro-1H-isoindol-1-one] |  | HDAC6 inhibitory rate (%) (10 μM): 100% |
| O=C1c2cc(-c3nnc(C(F)F)o3)ccc2CN1[C@H](c1ccccn1)[C@@H](O)c1ccccc1 (single isomer, unassigned) [Example 102, 6-[5-(difluoromethyl)-1,3,4-oxadiazol-2-yl]-2-[(1R*,2S*)-2-hydroxy-2-phenyl-1-(pyridin-2-yl)ethyl]-2,3-dihydro-1H-isoindol-1-one] | 100 |  |
| O=C1c2cc(-c3nnc(C(F)F)o3)ccc2CN1[C@H](c1ccccn1)[C@@H](O)c1ccccc1 (single isomer, unassigned) [Example 103, 6-[5-(difluoromethyl)-1,3,4-oxadiazol-2-yl]-2-[(1R*,2S*)-2-hydroxy-2-phenyl-1-(pyridin-2-yl)ethyl]-2,3-dihydro-1H-isoindol-1-one] |  | HDAC6 inhibitory rate (%) (10 μM): 100% |
| O=C1c2cc(-c3nnc(C(F)F)o3)ccc2CN1[C@H](c1ccccn1)[C@@H](O)c1ccc(C(F)(F)F)cn1 (single isomer, unassigned) [Example 104, 6-[5-(difluoromethyl)-1,3,4-oxadiazol-2-yl]-2-{(1R*,2R*)-2-hydroxy-1-(pyridin-2-yl)-2-[5-(trifluoromethyl)pyridin-2-yl]ethyl}-2,3-dihydro-1H-isoindol-1-one] | 100 |  |
| O=C1c2cc(-c3nnc(C(F)F)o3)ccc2CN1[C@H](c1ccccn1)[C@@H](O)c1ccc(C(F)(F)F)cn1 (single isomer, unassigned) [Example 105, 6-[5-(difluoromethyl)-1,3,4-oxadiazol-2-yl]-2-{(1R*,2R*)-2-hydroxy-1-(pyridin-2-yl)-2-[5-(trifluoromethyl)pyridin-2-yl]ethyl}-2,3-dihydro-1H-isoindol-1-one] |  | HDAC6 inhibitory rate (%) (10 μM) (10 µM): 99% |
| O=C1c2cc(-c3nnc(C(F)F)o3)ccc2CN1[C@H](c1cccnn1)[C@@H](O)c1ccc(F)c(F)c1 (single isomer, unassigned) [Example 108, 6-[5-(difluoromethyl)-1,3,4-oxadiazol-2-yl]-2-[(1R*,2S*)-2-(3,4-difluorophenyl)-2-hydroxy-1-(pyridazin-3-yl)ethyl]-2,3-dihydro-1H-isoindol-1-one] | 100 |  |
| O=C1c2cc(-c3nnc(C(F)F)o3)ccc2CN1[C@H](c1cccnn1)[C@@H](O)c1ccc(F)c(F)c1 (single isomer, unassigned) [Example 109, 6-[5-(difluoromethyl)-1,3,4-oxadiazol-2-yl]-2-[(1R*,2S*)-2-(3,4-difluorophenyl)-2-hydroxy-1-(pyridazin-3-yl)ethyl]-2,3-dihydro-1H-isoindol-1-one] |  | HDAC6 inhibitory rate (%) (10 μM): 100% |
| O=C1c2cc(-c3nnc(C(F)F)o3)ccc2CN1[C@H](c1cccnn1)[C@@H](O)c1ccc(Cl)cc1 (single isomer, unassigned) [Example 111, 2-[(1R*,2S*)-2-(4-chlorophenyl)-2-hydroxy-1-(pyridazin-3-yl)ethyl]-6-[5-(difluoromethyl)-1,3,4-oxadiazol-2-yl]-2,3-dihydro-1H-isoindol-1-one] | 99 |  |
| O=C1c2cc(-c3nnc(C(F)F)o3)ccc2CN1[C@H](c1ccccn1)[C@@H](O)c1ccc(Cl)cn1 (single isomer, unassigned) [Example 112, 2-[(1R*,2R*)-2-(5-chloropyridin-2-yl)-2-hydroxy-1-(pyridin-2-yl)ethyl]-6-[5-(difluoromethyl)-1,3,4-oxadiazol-2-yl]-2,3-dihydro-1H-isoindol-1-one] | 99 |  |
| O=C1c2cc(-c3nnc(C(F)F)o3)ccc2CN1[C@H](c1ccccn1)[C@@H](O)c1ccc(Cl)cn1 (single isomer, unassigned) [Example 113, 2-[(1R*,2R)-2-(5-chloropyridin-2-yl)-2-hydroxy-1-(pyridin-2-yl)ethyl]-6-[5-(difluoromethyl)-1,3,4-oxadiazol-2-yl]-2,3-dihydro-1H-isoindol-1-one] |  | HDAC6 inhibitory rate (%) (10 μM) (10 µM): 100% |
| O=C1c2cc(-c3nnc(C(F)F)o3)ccc2CN1[C@H](c1ccccn1)[C@@H](O)c1cccc(Cl)n1 (single isomer, unassigned) [Example 114, 2-[(1R*,2R*)-2-(6-chloropyridin-2-yl)-2-hydroxy-1-(pyridin-2-yl)ethyl]-6-[5-(difluoromethyl)-1,3,4-oxadiazol-2-yl]-2,3-dihydro-1H-isoindol-1-one] | 99 |  |
| O=C1c2cc(-c3nnc(C(F)F)o3)ccc2CN1[C@H](c1ccccn1)[C@@H](O)c1cccc(Cl)n1 (single isomer, unassigned) [Example 115, 2-[(1R*,2R*)-2-(6-chloropyridin-2-yl)-2-hydroxy-1-(pyridin-2-yl)ethyl]-6-[5-(difluoromethyl)-1,3,4-oxadiazol-2-yl]-2,3-dihydro-1H-isoindol-1-one] |  | HDAC6 inhibitory rate (%) (10 μM) (10 µM): 100% |
| O=C1c2cc(-c3nnc(C(F)F)o3)ccc2CN1[C@H](c1cccc(F)n1)[C@@H](O)c1cccc(F)n1 (single isomer, unassigned) [Example 117, 2-[(1R*,2R*)-1,2-bis(6-fluoropyridin-2-yl)-2-hydroxyethyl]-6-[5-(difluoromethyl)-1,3,4-oxadiazol-2-yl]-2,3-dihydro-1H-isoindol-1-one] | 101 |  |
| O=C1c2cc(-c3nnc(C(F)F)o3)ccc2CN1[C@H](c1cccc(F)n1)[C@@H](O)c1cccc(F)n1 (single isomer, unassigned) [Example 118, 2-[(1R*,2R*)-1,2-bis(6-fluoropyridin-2-yl)-2-hydroxyethyl]-6-[5-(difluoromethyl)-1,3,4-oxadiazol-2-yl]-2,3-dihydro-1H-isoindol-1-one] |  | HDAC6 inhibitory rate (%) (10 μM) (10 µM): 102% |
| O=C1c2cc(-c3nnc(C(F)F)o3)ccc2CN1[C@H](c1ccccn1)[C@@H](O)c1cccc(C(F)(F)F)n1 (single isomer, unassigned) [Example 119, 6-[5-(difluoromethyl)-1,3,4-oxadiazol-2-yl]-2-{(1R*,2R*)-2-hydroxy-1-(pyridin-2-yl)-2-[6-(trifluoromethyl)pyridin-2-yl]ethyl}-2,3-dihydro-1H-isoindol-1-one] | 101 |  |
| O=C1c2cc(-c3nnc(C(F)F)o3)ccc2CN1[C@H](c1ccccn1)[C@@H](O)c1cccc(C(F)(F)F)n1 (single isomer, unassigned) [Example 120, 6-[5-(difluoromethyl)-1,3,4-oxadiazol-2-yl]-2-{(1R*,2R*)-2-hydroxy-1-(pyridin-2-yl)-2-[6-(trifluoromethyl)pyridin-2-yl]ethyl}-2,3-dihydro-1H-isoindol-1-one] |  | HDAC6 inhibitory rate (%) (10 μM): 101% |
